Where two headings read alike, the source gives them in different places.
Assays:
[1] = Determination of log P values by HPLC on a reverse phase column (C18), EEC-Directive 79/831 Annex V.A8 (Methods A, B, C); type: physicochemical; details: for chromatographic logP: reverse phase C18 HPLC column
Protocol: (§1) Note on the determination of the log P values and mass detection: The stated log P values were determined in accordance with EEC-Directive 79/831 Annex V.A8 by HPLC (High Performance Liquid Chromatography) on a reverse phase column (C18). Agilent 1100 LC system; 50*4.6 Zorbax Eclipse Plus C18 1.8 micron; eluent A: acetonitrile (0.1% formic acid); eluent B: water (0.09% formic acid); linear gradient from 10% acetonitrile to 95% acetonitrile in 4.25 mins, then 95% acetonitrile for a further 1.25 mins; oven temperature 55° C.; flow rate: 2.0 mL/min. The mass detection was effected with an Agilend MSD system.
as §1, with “HP1100;” for “Agilent 1100 LC system;”, “(0.08%” for “(0.09%”, “5%” for “10%”, “1.70 min,” for “4.25 mins,”, “1.00 min;” for “1.25 mins;”, “the Micronass ZQ2000 mass detector from Waters.” for “an Agilend MSD system.”
Note on the determination of the log P values and mass detection: The stated log P values were determined in accordance with EEC-Directive 79/831 Annex V.A8 by UPLC (Ultra Performance Liquid Chromatography) on a reverse phase column (C18). HP1100; 50*2.1 Zorbax Eclipse Plus C18 1.8 micron; eluent A: acetonitrile (0.09% formic acid); eluent B: water (0.1% formic acid); linear gradient from 10% A to 95% A in 3.25 min; oven temperature 40° C.; flow rate: 0.8 mL/min. The mass detection was effected with the LCT Premier or SQD mass detector from Waters.

Uromyces appendiculatus = assay: Example B: Uromyces test (beans) / preventive; type: in vivo; details: in vivo
Pyrenophora teres = assay: Example D: Pyrenophora test (barley) / preventive; type: in vivo
Puccinia recondita = assay: Example E: Puccinia test (wheat) / preventive; type: in vivo; details: in vivo
Pyricularia oryzae = type: in vivo; details: in vivo
Sphaerotheca fuliginea = assay: Example A: Sphaerotheca test (cucumber) / preventive; type: in vivo
Leptosphaeria nodorum = assay: Example C: Leptosphaeria test (wheat) / preventive; type: in vivo; details: in vivo
[2] = Method B (HPLC, reverse phase C18)
[3] = Method C (HPLC, reverse phase C18)

SMILES | LogP [1, 2] | efficacy (Uromyces appendiculatus) [%] | efficacy (Pyrenophora teres; in vivo) [%] | efficacy (Puccinia recondita) [%] | efficacy (Pyricularia oryzae) [%] | LogP [1, 3] | efficacy (Sphaerotheca fuliginea; in vivo) [%] | chromatographic logP ([1]; Method C (HPLC, reverse phase C18), read-out: LogP) | chromatographic logP ([1]; pH 2.7, values in the synthesis examples, HPLC, reverse phase C18, read-out: log P (pH 2.7)) | efficacy (Sphaerotheca fuliginea; 500 ppm of active ingredient, cucumber, preventive spray, evaluated 7 days after inoculation) [%] | efficacy (Pyrenophora teres; 500 ppm of active ingredient, barley, preventive spray, evaluated 7-9 days after inoculation) [%] | efficacy (Leptosphaeria nodorum) [%]
CC(C)=CCC(=O)Nc1cc(-c2c(-c3ccc(F)cc3)nn3c2OCCC3)ccn1 [Example 33] | 2.07 | 89 | 90 | 100 | 94 | – | – | – | – | – | – | –
CCOC(=O)Nc1cc(-c2c(-c3ccc(F)cc3)nn3c2OCCC3)ccn1 [Example 23] | 1.66 | 94 | 95 | 95 | 94 | – | – | – | – | – | – | –
C[C@H](O)C(=O)Nc1cc(-c2c(-c3ccc(F)cc3F)nn3c2OCCC3)ccn1 [Example 41] | 1.34 | 94 | 90 | 95 | 94 | – | – | – | – | – | – | –
CC(=O)N(C(C)=O)c1cc(-c2c(-c3ccc(F)cc3)nn3cccnc23)ccn1 [Example 83] | – | – | 80 | – | – | 2.22 | 90 | – | – | – | – | –
CC(C)=CCC(=O)Nc1cc(-c2c(-c3ccc(F)cc3F)nn3c2OCCC3)ccn1 [Example 48] | 2.1 | 86 | 70 | 95 | 78 | – | – | – | – | – | – | –
O=C(CCc1ccccc1)Nc1cc(-c2c(-c3ccc(F)cc3)nn3c2OCCC3)ccn1 [Example 29] | 2.2 | 94 | 70 | 95 | 94 | – | – | – | – | – | – | –
CC(=O)N(C(C)=O)c1cc(-c2c(-c3ccccc3)nn3cccnc23)ccn1 [Example 56, N-Acetyl-N-[4-(2-phenylpyrazolo[1,5-a]pyrimidin-3-yl)pyridin-2-yl]acetamide] | – | – | – | – | – | – | – | 2.13 | 2.13 | 80 | 95 | –
CC(C(=O)Nc1cc(-c2c(-c3ccc(F)cc3F)nn3c2OCCC3)ccn1)c1ccc(F)cc1 (stereo not drawn) [Example 47] | 2.48 | 92 | 80 | 95 | 89 | – | – | – | – | – | – | –
CCC(=O)Nc1cc(-c2c(-c3ccsc3)nn3c2OC[Si](C)(C)C3)ccn1 [Example 100] | – | – | 95 | – | 70 | 1.88 | – | – | – | – | – | 80
CCOC(=O)Nc1cc(-c2c(-c3ccc(F)cc3F)nn3c2OCCC3)ccn1 [Example 38] | 1.72 | 89 | 95 | 90 | 94 | – | – | – | – | – | – | –
CC(C(=O)Nc1cc(-c2c(-c3ccc(F)cc3)nn3c2OCCC3)ccn1)c1ccc(F)cc1 (stereo not drawn) [Example 32] | 2.48 | 92 | 90 | 100 | 94 | – | – | – | – | – | – | –
C[C@H](O)C(=O)Nc1cc(-c2c(-c3ccc(F)cc3)nn3c2OCCC3)ccn1 [Example 26] | 1.31 | 72 | 100 | 100 | 94 | – | – | – | – | – | – | 70
CSCC(=O)Nc1cc(-c2c(-c3ccccc3)nn3c2OCCC3)ccn1 [Example 16] | 1.54 | 92 | 95 | 95 | 94 | – | 93 | – | – | – | – | –
O=C(CCc1ccccc1)Nc1cc(-c2c(-c3ccccc3)nn3c2OCCC3)ccn1 [Example 15] | 2.04 | 83 | 95 | 95 | 94 | – | – | – | – | – | – | –
C[Si]1(C)COc2c(-c3ccnc(NC(=O)C4CC4)c3)c(-c3ccsc3)nn2C1 [Example 102] | – | – | 100 | – | 70 | 1.97 | – | – | – | – | – | 80
CC(C)=CCC(=O)Nc1cc(-c2c(-c3ccccc3)nn3c2OCCC3)ccn1 [Example 19] | 1.91 | 92 | 95 | 95 | 94 | – | 90 | – | – | – | – | –
